The record followed here is patent US20080221017A1, “Pharmaceutical or cosmetic composition and use of a PKC inhibitor with an MMP inhibitor for inhibiting langerhans cell migration” (Laboratoires Expanscience, priority 2000, published 2008).

The assay deals with Langerhans cells (LCs). The assay is described as follows: Migration of LCs through Matrigel in a two-compartment culture chamber (DNSB-sensitized). The class given is cell-based, human. The conditions noted are these: for LC migration index: 18 h at 37° C., control cells fixed at 1. How it is done:
Suspensions of epidermal cells were obtained by enzyme treatment (0.05% trypsin, for 18 h at +4° C.) of fragments of normal human skin derived from plastic surgery.
D-sphingosine was diluted in ethanol so as to obtain a stock solution at 5×10^−3 M. The D-sphingosine was used at a concentration of 2.5 μM, the dilution carried out in RPMI containing 1% of bovine serum albumin (RPMI-BSA).
A peptide extract of lupin was used as MMP inhibitor. It is the peptide extract LU105 from Laboratoires Pharmascience.
The cells were pre-incubated at 37° C. for 60 min in the presence of LU105, before adding to the medium the hapten DNSB as sensitizing agent.
As sensitizing agent, DNSB (Sigma Aldrich) was used, the soluble form of DNCB (dinitrochlorobenzene), and was solubilized in RPMI-BSA and used at a concentration of 50 μM.
A two-compartment culture chamber system (Falcon, Becton Dickinson, France) was used. The upper compartment is separated from the lower compartment by a membrane with a porosity of 8 μm, onto which are deposited 50 μg/cm^2 of Matrigel. The membrane is then covered with proteins, forming a film equivalent to a basal membrane (laminin, collagen IV, nidogen, entactin, heparan sulfate proteoglycans). The cells taken up in the RPMI-BSA medium alone or in the presence of the various products are placed in the upper compartment. Normal human fibroblast culture supernatant is added to the lower compartment. After incubation for 18 h at 37° C., the number of living cells which have crossed the Matrigel and are in the lower compartment is counted under a microscope (the LCs are easily identifiable by their dendritic shape). Each assay is carried out in triplicate.

Consider `O=[N+]([O-])c1ccc(S(=O)(=O)O)c([N+](=O)[O-])c1` [DNSB, reference compound], for which, where the note is “cells sensitized with the hapten DNSB (50 μM) alone”, the LC migration index came out at 1.61. Further, the “increase of LC migration compared to the normal unstimulated cells (control cells)” value (treatment with the hapten DNSB alone) was determined as 61%.
With `CCCCCCCCCCCCC/C=C/[C@@H](O)[C@@H](N)CO` (relative stereo) [D-sphingosine, D-erythro-1,3-dihydroxy-2-amino-4-trans-octadecene], where the note is “D-sphingosine 2.5 μM”, the “effect on the LC migration induced by DNSB (in words)” value is given as “significantly inhibits”. The LC migration index (DNSB+D-sphingosine (2.5 μM)) is 1.15.
